ChEMBL document CHEMBL4825772, “Protein Degradation Inducers of Androgen Receptor by Conjugation of Antagonists Androgen Receptor and E3 Ligase Ligand” (ACS Med Chem Lett, 2021)

What follows are compounds tested against Protein cereblon/Androgen receptor (Homo sapiens, UniProt P10275+Q96SW2) (assay: Protac activity at E3 ubiquitin ligase/androgen receptor in human LNCaP cells assessed as induction of androgen receptor degradation incubated for overnight by sandwich ELISA).
Type: cell-based

Sequence of Protein cereblon/Androgen receptor (P10275 whole entry): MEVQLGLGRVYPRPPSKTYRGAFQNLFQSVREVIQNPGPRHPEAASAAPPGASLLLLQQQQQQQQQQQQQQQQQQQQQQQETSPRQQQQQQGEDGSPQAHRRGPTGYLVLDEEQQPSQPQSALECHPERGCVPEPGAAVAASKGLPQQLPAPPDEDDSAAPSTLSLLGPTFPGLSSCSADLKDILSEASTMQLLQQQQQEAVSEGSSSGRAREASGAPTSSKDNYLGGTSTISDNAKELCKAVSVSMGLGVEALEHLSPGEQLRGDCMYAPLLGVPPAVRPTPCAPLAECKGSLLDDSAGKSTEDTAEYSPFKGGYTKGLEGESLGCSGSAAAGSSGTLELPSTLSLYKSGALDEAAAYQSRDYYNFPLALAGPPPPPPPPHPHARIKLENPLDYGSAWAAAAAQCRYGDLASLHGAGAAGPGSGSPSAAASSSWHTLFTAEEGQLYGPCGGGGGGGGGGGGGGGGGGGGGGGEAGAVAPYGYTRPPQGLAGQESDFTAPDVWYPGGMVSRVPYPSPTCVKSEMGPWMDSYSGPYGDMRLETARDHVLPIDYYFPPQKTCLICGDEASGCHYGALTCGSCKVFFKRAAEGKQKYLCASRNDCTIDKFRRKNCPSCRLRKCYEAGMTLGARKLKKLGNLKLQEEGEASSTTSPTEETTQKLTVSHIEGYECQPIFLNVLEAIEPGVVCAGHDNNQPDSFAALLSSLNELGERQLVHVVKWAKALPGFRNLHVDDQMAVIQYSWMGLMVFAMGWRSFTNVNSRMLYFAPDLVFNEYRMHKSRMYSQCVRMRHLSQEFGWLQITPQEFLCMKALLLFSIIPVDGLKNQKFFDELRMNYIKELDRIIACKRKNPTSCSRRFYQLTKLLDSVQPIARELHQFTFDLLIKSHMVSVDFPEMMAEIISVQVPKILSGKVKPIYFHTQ
Sequence of Protein cereblon/Androgen receptor (Q96SW2 whole entry): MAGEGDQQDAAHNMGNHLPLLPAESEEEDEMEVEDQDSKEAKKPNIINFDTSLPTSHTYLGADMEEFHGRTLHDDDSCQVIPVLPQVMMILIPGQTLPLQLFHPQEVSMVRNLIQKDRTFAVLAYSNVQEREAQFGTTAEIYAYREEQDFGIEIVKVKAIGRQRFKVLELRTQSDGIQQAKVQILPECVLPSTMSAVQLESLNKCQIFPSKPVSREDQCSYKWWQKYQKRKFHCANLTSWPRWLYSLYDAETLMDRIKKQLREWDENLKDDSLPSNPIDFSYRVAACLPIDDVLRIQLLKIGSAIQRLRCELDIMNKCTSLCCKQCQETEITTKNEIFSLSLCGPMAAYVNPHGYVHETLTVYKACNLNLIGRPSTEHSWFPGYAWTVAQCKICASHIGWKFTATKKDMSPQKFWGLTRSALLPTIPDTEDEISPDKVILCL

| DC50 | SMILES |
| --- | --- |
| 7.7 nM | N#Cc1ccc(N2CCc3c(ncnc3Nc3ccc(C(=O)NCCC(=O)N4CCC(CN5CCN(c6cc7c(cc6F)C(=O)N(C6CCC(=O)NC6=O)C7=O)CC5)CC4)c(F)n3)C2)cc1Cl (configuration not stated) |
| 3.2 nM | N#Cc1ccc(N2CCc3c(ncnc3Nc3ccc(C(=O)N4CCC(CN5CCN(c6ccc7c(c6)C(=O)N(C6CCC(=O)NC6=O)C7=O)CC5)CC4)c(F)n3)C2)cc1Cl (configuration not stated) |
| 9.1 nM | C[C@H]1CN(c2ccc3c(c2)C(=O)N(C2CCC(=O)NC2=O)C3=O)CCN1C[C@H]1CC[C@H](NC(=O)c2ccc(Nc3ncnc4c3CCN(c3ccc(C#N)c(Cl)c3)C4)nc2F)CC1 (some centres not stated) |
| 8.5 nM | N#Cc1ccc(N2CCc3c(ncnc3Nc3ccc(C(=O)NC4CCN(CC5CCN(c6ccc7c(c6)C(=O)N(C6CCC(=O)NC6=O)C7=O)CC5)CC4)c(F)n3)C2)cc1Cl (configuration not stated) |
| 4.9 nM | N#Cc1ccc(N2CCc3c(ncnc3Nc3ccc(C(=O)NC4CCN(C5CCN(c6ccc7c(c6)C(=O)N(C6CCC(=O)NC6=O)C7=O)CC5)CC4)c(F)n3)C2)cc1Cl (configuration not stated) |
| 2.8 nM | N#Cc1ccc(N2CCc3c(ncnc3Nc3ccc(C(=O)NCC(=O)N4CCC(CN5CCN(c6cc7c(cc6F)C(=O)N(C6CCC(=O)NC6=O)C7=O)CC5)CC4)c(F)n3)C2)cc1Cl (configuration not stated) |
| 16.6 nM | CN(C1CCN(C(=O)c2ccc(Nc3ncnc4c3CCN(c3ccc(C#N)c(Cl)c3)C4)nc2F)CC1)C1CCN(c2cc3c(cc2F)C(=O)N(C2CCC(=O)NC2=O)C3=O)CC1 (configuration not stated) |
| 3 nM | N#Cc1ccc(N2CCc3c(ncnc3Nc3ccc(C(=O)NCCCCCCN4CCN(c5ccc6c(c5)C(=O)N(C5CCC(=O)NC5=O)C6=O)CC4)c(F)n3)C2)cc1Cl (configuration not stated) |
| 9.2 nM | N#Cc1ccc(N2CCc3c(ncnc3Nc3ccc(C(=O)N[C@H]4CC[C@H](CN5CCN(c6cc7c(cc6F)C(=O)N(C6CCC(=O)NC6=O)C7=O)CC5)CC4)c(F)n3)C2)cc1Cl (some centres not stated) |
| 5.3 nM | C[C@@H]1CN(c2ccc3c(c2)C(=O)N(C2CCC(=O)NC2=O)C3=O)CCN1C[C@H]1CC[C@H](NC(=O)c2ccc(Nc3ncnc4c3CCN(c3ccc(C#N)c(Cl)c3)C4)nc2F)CC1 (some centres not stated) |
| 4.82 nM | CN(C1CCN(C(=O)c2ccc(Nc3ncnc4c3CCN(c3ccc(C#N)c(Cl)c3)C4)nc2F)CC1)C1CCN(c2ccc3c(c2)C(=O)N(C2CCC(=O)NC2=O)C3=O)CC1 (configuration not stated) |
| 11.6 nM | N#Cc1ccc(N2CCc3c(ncnc3Nc3ccc(C(=O)N4CCC(CN5CCN(c6cc7c(cc6F)C(=O)N(C6CCC(=O)NC6=O)C7=O)CC5)CC4)c(F)n3)C2)cc1Cl (configuration not stated) |
